The results in this text go back to article PMC4184702 (Pharmacology Research & Perspectives, 2014).

SMILES strings stand for the structures.

One series has as its target T1, D5 dopamine receptor (Homo sapiens, UniProt P21918).
T1 construct: purchased NIMH Psychoactive Drug Screening Program (PDSP)
Put plainly: PDSP primary binding, D5. Particulars: n = 4, read-out: Inhibition (primary binding competition efficacy), D5. The method, then:
(§1) For experimental details, please refer to the Psychoactive Drug Screening Program (PDSP) web site http://pdsp.med.unc.edu/.
(§2) ^a The default concentration for primary binding experiments is 10 µM (n = 4). ^b Negative inhibition represents a stimulation of binding. ^c BZPR: Benzodiazepine Receptors (rat brain site). ^d DOR: Delta Opioid Receptor; KOR: Kappa Opioid Receptor; MOR: Mu Opioid Receptor. ^e DAT: Dopamine Transporter; NET: Norepinephrine Transporter; SERT: Serotonin Transporter. ^f NMDA: N-methyl-D-aspartate receptor.

The next series concerns the target T2, β2 adrenergic receptor (Homo sapiens, UniProt P07550).
T2 construct: purchased NIMH Psychoactive Drug Screening Program (PDSP)
Nature of the series: PDSP primary binding, β2. The note with it: n = 4, read-out: Inhibition (primary binding competition efficacy), β2. The protocol:
as §1, §2

Another series has as its system GABAA. Put plainly: PDSP primary binding, GABAA. The note with it: 10 µM, n = 4. The protocol: as §1, §2
The target in a further series is T3, M5 muscarinic receptor (Homo sapiens, UniProt P08912).
T3 construct: purchased NIMH Psychoactive Drug Screening Program (PDSP)
T3 sequence (P08912 whole entry): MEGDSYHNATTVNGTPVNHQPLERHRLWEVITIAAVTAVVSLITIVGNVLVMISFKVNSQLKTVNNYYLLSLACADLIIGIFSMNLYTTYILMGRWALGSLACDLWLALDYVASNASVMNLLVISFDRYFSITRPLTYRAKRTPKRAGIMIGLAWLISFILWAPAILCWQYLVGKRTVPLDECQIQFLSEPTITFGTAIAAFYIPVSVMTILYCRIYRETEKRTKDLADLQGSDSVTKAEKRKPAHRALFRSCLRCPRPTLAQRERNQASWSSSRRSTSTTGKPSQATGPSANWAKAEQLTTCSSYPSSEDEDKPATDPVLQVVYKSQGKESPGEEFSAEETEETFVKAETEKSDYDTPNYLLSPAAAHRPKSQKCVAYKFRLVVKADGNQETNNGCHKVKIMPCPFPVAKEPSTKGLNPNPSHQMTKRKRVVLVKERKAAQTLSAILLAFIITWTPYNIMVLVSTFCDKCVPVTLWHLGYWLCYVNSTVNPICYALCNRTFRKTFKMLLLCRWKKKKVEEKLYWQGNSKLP
Nature of the series: PDSP primary binding, M5. The note with it: n = 4, read-out: Inhibition (primary binding competition efficacy), M5. The method, then:
as §1, §2

For series [1], the target named is T4, human muscle-type α1β1γδ-nAChR (Homo sapiens, UniProt P02708+P07510+Q07001).
T4 construct: TE671/RD naturally expresses human muscle-type α1*-nAChRs; endogenous in cells; host or cells: TE671/RD human clonal cell line
T4 sequence (P02708 21-457): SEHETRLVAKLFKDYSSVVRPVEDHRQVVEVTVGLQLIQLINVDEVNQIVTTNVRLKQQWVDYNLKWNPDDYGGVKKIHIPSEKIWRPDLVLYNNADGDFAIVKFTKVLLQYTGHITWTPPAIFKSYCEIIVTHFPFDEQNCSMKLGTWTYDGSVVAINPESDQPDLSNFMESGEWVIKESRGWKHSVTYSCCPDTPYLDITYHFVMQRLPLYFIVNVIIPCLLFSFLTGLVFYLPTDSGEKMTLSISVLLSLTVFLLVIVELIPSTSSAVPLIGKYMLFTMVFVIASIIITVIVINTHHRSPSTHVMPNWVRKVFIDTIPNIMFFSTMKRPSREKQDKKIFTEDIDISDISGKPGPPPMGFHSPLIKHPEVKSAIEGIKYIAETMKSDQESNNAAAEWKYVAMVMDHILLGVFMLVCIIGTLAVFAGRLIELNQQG
T4 sequence (P11230 24-501 partner): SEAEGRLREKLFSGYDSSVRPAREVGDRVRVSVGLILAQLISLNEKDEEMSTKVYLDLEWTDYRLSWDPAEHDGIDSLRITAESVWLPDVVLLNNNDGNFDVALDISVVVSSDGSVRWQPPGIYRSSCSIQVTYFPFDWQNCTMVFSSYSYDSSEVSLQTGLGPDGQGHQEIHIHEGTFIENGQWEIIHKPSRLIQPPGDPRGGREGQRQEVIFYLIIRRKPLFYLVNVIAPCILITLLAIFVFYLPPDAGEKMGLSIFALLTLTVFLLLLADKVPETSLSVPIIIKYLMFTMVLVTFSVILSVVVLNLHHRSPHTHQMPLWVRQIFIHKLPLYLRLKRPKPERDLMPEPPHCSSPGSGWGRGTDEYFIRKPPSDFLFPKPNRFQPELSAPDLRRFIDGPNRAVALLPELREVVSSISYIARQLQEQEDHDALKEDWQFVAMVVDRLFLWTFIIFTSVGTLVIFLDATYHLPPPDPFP
T4 sequence (P07510 23-517): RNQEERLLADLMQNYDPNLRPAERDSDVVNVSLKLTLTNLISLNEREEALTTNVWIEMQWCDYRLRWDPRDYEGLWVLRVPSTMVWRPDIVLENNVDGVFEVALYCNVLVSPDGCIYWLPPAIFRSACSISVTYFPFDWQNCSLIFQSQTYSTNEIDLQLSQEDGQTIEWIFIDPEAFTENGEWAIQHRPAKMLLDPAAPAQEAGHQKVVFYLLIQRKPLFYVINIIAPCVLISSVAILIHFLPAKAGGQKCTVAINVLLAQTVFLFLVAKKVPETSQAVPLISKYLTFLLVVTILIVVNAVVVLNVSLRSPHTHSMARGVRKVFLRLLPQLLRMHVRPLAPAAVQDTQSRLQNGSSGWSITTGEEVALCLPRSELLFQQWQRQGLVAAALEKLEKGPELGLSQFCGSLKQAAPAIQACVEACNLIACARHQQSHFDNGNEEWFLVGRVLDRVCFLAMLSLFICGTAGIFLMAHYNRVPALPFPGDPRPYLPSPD
T4 sequence (Q07001 22-517): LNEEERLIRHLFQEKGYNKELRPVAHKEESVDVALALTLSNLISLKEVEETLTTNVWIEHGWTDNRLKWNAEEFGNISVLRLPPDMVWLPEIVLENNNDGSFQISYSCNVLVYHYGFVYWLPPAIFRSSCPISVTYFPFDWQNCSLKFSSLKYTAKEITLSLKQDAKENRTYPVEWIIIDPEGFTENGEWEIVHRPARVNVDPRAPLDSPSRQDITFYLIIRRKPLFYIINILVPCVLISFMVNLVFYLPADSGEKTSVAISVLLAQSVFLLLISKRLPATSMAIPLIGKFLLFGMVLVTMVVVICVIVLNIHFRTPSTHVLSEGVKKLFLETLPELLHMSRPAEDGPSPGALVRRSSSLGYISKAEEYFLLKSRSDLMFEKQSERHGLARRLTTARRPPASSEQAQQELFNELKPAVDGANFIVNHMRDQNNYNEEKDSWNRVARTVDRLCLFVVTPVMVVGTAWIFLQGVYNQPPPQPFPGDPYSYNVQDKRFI
Put plainly: 86Rb+ ion efflux assay, TE671/RD cells. In kind it is cell-based. Particulars: 86Rb+ ion flux assay. The source says: Cell lines naturally or heterologously expressing specific, functional, human nAChR subtypes were used. The human clonal cell line TE671/RD naturally expresses human muscle-type α1*-nAChRs, containing α1, β1, γ, and δ subunits, with function detectable using ^86Rb^+ efflux assays. […] These cells heterologously express human nAChR chimeric (α6/3) subunits (wherein the extracellular, N-terminal, ligand-binding domain of the human nAChR α6 subunit replaces that domain in the nAChR α3 subunit) along with human β2 and β3 subunits. […] Cells were passaged once a week by splitting just-confluent cultures 1/300 (TE671/RD), 1/10 (SH-SY5Y), or 1/40 (transfected SH-EP1) in serum-supplemented medium to maintain log-phase growth.
One newer modification on these techniques involves low temperature incubation before assays to increase the surface expression of high sensitivity (HS) relative to low sensitivity (LS) α4β2 nAChRs and to enhance surface expression of (α6/3)β2β3-nAChRs. […] In brief, this allows us to determine efficacies of test compounds at LS and HS α4β2 nAChRs, respectively, as the ordinate values of the linear regressions at abscissa values of 0% and 100% of sazetidine-A efficacy.
Results are normalized to responses to a fully efficacious concentration of carbamylcholine (see Materials and Methods for details). […]

A further series addresses T5, CYP2C9 (Homo sapiens, UniProt P11712).
T5 construct: from tissue; host or cells: human liver microsomes (HLM)
Nature of the series: CYP2C9 inhibition, HLM, diclofenac substrate. Format: in vitro ADME. The note with it: 1.0E-05 M. An excerpt: Supplement prp20002-e00026-sd1.doc, table 3: Table 3.

T5 sequence (P11712 whole entry): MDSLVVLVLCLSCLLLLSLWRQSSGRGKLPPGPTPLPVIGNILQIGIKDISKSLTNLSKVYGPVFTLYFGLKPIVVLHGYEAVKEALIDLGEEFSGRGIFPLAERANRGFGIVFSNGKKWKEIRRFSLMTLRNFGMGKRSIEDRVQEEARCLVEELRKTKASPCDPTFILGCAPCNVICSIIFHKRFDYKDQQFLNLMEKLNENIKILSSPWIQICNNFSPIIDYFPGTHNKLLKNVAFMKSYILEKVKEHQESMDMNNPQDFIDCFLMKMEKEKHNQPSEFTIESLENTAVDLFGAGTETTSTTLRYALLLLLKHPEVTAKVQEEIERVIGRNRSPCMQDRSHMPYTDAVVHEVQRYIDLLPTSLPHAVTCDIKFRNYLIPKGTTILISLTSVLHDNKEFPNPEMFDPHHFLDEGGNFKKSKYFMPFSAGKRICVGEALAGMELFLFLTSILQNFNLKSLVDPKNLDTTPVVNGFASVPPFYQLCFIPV
T1 sequence (P21918 whole entry): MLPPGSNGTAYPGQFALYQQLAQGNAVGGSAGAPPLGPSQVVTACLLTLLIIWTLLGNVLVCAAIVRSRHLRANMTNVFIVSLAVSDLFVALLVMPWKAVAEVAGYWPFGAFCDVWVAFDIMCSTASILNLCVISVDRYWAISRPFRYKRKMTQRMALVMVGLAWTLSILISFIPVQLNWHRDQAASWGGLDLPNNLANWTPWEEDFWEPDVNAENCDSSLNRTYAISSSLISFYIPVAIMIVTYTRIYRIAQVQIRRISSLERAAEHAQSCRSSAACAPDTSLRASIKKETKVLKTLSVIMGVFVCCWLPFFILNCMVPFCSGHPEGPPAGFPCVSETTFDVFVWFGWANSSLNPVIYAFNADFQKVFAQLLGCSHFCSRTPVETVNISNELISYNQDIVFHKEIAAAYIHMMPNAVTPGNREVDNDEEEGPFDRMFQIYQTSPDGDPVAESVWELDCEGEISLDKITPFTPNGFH
T2 sequence (P07550 whole entry): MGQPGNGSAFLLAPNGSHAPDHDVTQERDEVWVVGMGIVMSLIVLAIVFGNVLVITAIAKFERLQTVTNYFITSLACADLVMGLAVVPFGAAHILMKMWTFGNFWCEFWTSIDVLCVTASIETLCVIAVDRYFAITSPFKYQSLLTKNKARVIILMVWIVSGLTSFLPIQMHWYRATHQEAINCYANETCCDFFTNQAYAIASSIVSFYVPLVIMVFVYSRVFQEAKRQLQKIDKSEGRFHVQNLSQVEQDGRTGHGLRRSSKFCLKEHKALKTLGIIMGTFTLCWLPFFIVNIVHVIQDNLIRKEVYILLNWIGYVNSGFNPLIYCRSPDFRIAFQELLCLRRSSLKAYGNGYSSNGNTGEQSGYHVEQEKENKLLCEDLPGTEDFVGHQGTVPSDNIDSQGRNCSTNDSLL

Regarding `OCCc1cc(-c2cncc(OC[C@@H]3CCN3)c2)on1` [LF-3-88, 2-[5-[5-(2(S)-azetidinylmethoxyl)-3-pyridyl]-3-isoxazolyl]ethanol], the results for the inhibition at 10 µM at D5 dopamine receptor, at β2 adrenergic receptor and at M5 muscarinic receptor were 5.8%, 6.8% and -9.4%, respectively. For the same compound, the “Inhibition (primary binding competition efficacy), GABAA” value in the series with GABAA is given as -7.6%. Also, the “agonist or antagonist activity at muscle-type α1β1γδ-nAChRs” value in series [1] is “no significant agonist or antagonist activity”. The “CYP2C9 Inhibition” value on CYP2C9 was determined as 4%.

Broadly, the inhibition is the relative decrease from the control value, in per cent.
